Data: PMC6270326, “The Novel [4,5-e][1,3]Diazepine-4,8-dione and Acyclic Carbamoyl Imino-Ureido Derivatives of Imidazole: Synthesis, Anti-Viral and Anti-Tumor Activity Evaluations” (Molecules, 2013)

Columns and labels:
[1] = tested on: MCF-7 (breast epithelial adenocarcinoma, metastatic); test: Proliferation assay (MTT), MCF-7; type: cell-based; conditions: Homo sapiens, MCF7, 72 h incubation, read-out: Tumor cell growth IC50, MCF-7
Description: (§1) The cell lines HeLa (cervical carcinoma), SW620 (colorectal adenocarcinoma, metastatic), MCF-7 (breast epithelial adenocarcinoma, metastatic), HepG2 (hepatocellular carcinoma) and BJ (normal diploid human fibroblasts), were cultured as monolayers and maintained in Dulbecco’s modified Eagle medium (DMEM) supplemented with 10% fetal bovine serum (FBS), 2 mM L-glutamine, 100 U/mL penicillin and 100 μg/mL streptomycin in a humidified atmosphere with 5% CO2 at 37 °C.
(§2) The panel cell lines were inoculated onto a series of standard 96-well microtiter plates on day 0, at 3,000 to 5,000 cells per well according to the doubling times of specific cell line. Test agents were then added in 10-fold dilutions (0,01 to 100 µM) and incubated for further 72 h. Working dilutions were freshly prepared on the day of testing in the growth medium. The solvent (DMSO) was also tested for eventual inhibitory activity by adjusting its concentration to be the same as in the working concentrations (DMSO concentration never exceeded 0.1%). After 72 h of incubation, the cell growth rate was evaluated by performing the MTT assay: experimentally determined absorbance values were transformed into a cell percentage growth (PG) using the formulas proposed by NIH and described previously. This method directly relies on control of untreated cells at the day of substances addition because it compares the growth of treated cells with the growth of untreated cells in control wells on the same plate—the results are therefore a percentile difference from the calculated expected value. […] If, however, all of the tested concentrations produce PGs exceeding the respective reference level of effect (e.g., PG value of 50) for a given cell line, the highest tested concentration is assigned as the default value (in the screening data report that default value is preceded by a “>” sign). Each test point was performed in quadruplicate in three individual experiments. The results were statistically analyzed (ANOVA, Tukey post-hoc test at p < 0.05). Finally, the effects of the tested substances were evaluated by plotting the mean percentage growth for each cell type in comparison to control on dose response graphs.

[2] = tested on: HepG2 (hepatocellular carcinoma); test: Proliferation assay (MTT), HepG2; type: cell-based; conditions: Homo sapiens, 72 h incubation, read-out: Tumor cell growth IC50, HepG2
Description: as §1, §2

[3] = tested on: SW620 (colorectal adenocarcinoma, metastatic); test: Proliferation assay (MTT), SW620; type: cell-based; conditions: Homo sapiens, SW-620, 72 h incubation, read-out: Tumor cell growth IC50, SW620
Description: as §1, §2

[4] = tested on: HeLa (cervical carcinoma); test: Proliferation assay (MTT), HeLa; type: cell-based; conditions: Homo sapiens, 72 h incubation, read-out: Tumor cell growth IC50, HeLa
Description: as §1, §2

[5] = tested on: BJ (normal diploid human fibroblasts); test: Proliferation assay (MTT), BJ normal fibroblasts; type: cell-based; conditions: for IC50: Fibroblast, BJ normal human skin fibroblasts, 72 h incubation, MTT, read-out: Cell growth IC50, BJ; for Cytotoxicity on human normal fibroblasts (BJ): in words
Description: as §1, §2

[6] = tested on: HeLa, SW620, MCF-7, HepG2 and BJ cell lines; test: Proliferation assay (MTT), whole panel of cell lines; type: cell-based, human; conditions: in words
Description: as §1
The panel cell lines were inoculated onto a series of standard 96-well microtiter plates on day 0, at 3,000 to 5,000 cells per well according to the doubling times of specific cell line. Test agents were then added in 10-fold dilutions (0,01 to 100 µM) and incubated for further 72 h. […] After 72 h of incubation, the cell growth rate was evaluated by performing the MTT assay: experimentally determined absorbance values were transformed into a cell percentage growth (PG) using the formulas proposed by NIH and described previously. This method directly relies on control of untreated cells at the day of substances addition because it compares the growth of treated cells with the growth of untreated cells in control wells on the same plate—the results are therefore a percentile difference from the calculated expected value. […] The results were statistically analyzed (ANOVA, Tukey post-hoc test at p < 0.05). […]

Compound	IC50 [1]	IC50 [2]	IC50 [3]	IC50 [4]	IC50 [5]	melting point	Cytotoxicity on human normal fibroblasts (BJ) [5]	Antiproliferative effect on tested cell lines [6]
CN(C)CCCn1cnc(C(N)=O)c1C(N)=O [Compound 8, 1-(3-Dimethylamino-propyl)-1H-imidazole-4,5-dicarboxylic acid diamide]	> 100 µM	> 100 µM	> 100 µM	> 100 µM	> 100 µM	205 to 210 °C		
N=c1[nH]c(=O)c2ncn(CCN3CCCC3)c2c(=O)[nH]1 [Compound 11, 6-Imino-1-(2-pyrrolidin-1-yl-ethyl)-6,7-dihydro-1H,5H-1,3,5,7-tetraaza-azulene-4,8-dione]	> 100 µM	> 100 µM	20 µM	> 100 µM	> 100 µM			
COC(=O)c1ncn(CCN2CCCCC2)c1C(=O)OC [Compound 2, 1-(2-Piperidin-1-yl-ethyl)-1H-imidazole-4,5-dicarboxylic acid dimethyl ester]	> 100 µM	> 100 µM	> 100 µM	> 100 µM	> 100 µM			
COC(=O)c1ncn(CCN2CCOCC2)c1C(=O)NC(=N)NC(=O)Nc1ccccc1F [Compound 12, 5-({[3-(2-Fluoro-phenyl)-ureido]-imino-methyl}-carbamoyl)-1-(2-morpholin-4-yl-ethyl)-1H-imidazole-4-carboxylic acid methyl ester]	> 100 µM	> 100 µM	> 100 µM	> 100 µM	> 100 µM	> 164 °C		
NC(=O)c1ncn(CCN2CCCCC2)c1C(N)=O [Compound 6, 1-(2-Piperidin-1-il-etil)-1H-imidazol-4,5-diamide]	> 100 µM	> 100 µM	> 100 µM	> 100 µM	> 100 µM	200 to 201 °C		
COC(=O)c1ncn(CCN2CCCC2)c1C(=O)OC [Compound 3, 1-(2-Pyrrolidin-1-yl-ethyl)-1H-imidazole-4,5-dicarboxylic acid dimethyl ester]	> 100 µM	> 100 µM	> 100 µM	9.5 µM	> 100 µM		no apparent cytotoxicity	
COC(=O)c1ncn(CCCN(C)C)c1C(=O)OC [Compound 4, 1-(3-Dimethylamino-propyl)-1H-imidazole-4,5-dicarboxylic acid dimethyl ester]	> 100 µM	> 100 µM	> 100 µM	> 100 µM	> 100 µM			
N=c1[nH]c(=O)c2ncn(CCN3CCOCC3)c2c(=O)[nH]1 [Compound 9, 6-Imino-1-(2-morpholin-4-yl-ethyl)-6,7-dihydro-1H,5H-1,3,5,7-tetraaza-azulene-4,8-dione]	> 100 µM	> 100 µM	> 100 µM	> 100 µM	> 100 µM	> 300 °C		
N=c1[nH]c(=O)c2ncn(CCN3CCCCC3)c2c(=O)[nH]1 [Compound 10, 6-Imino-1-(2-piperidin-1-yl-ethyl)-6,7-dihydro-1H,5H-1,3,5,7-tetraaza-azulene-4,8-dione]	> 100 µM	41 µM	31 µM	31 µM	> 100 µM	> 300 °C		moderate non-selective antiproliferative activity
NC(=O)c1ncn(CCN2CCOCC2)c1C(N)=O [Compound 5, 1-(2-Morpholin-4-yl-ethyl)-1H-imidazole-4,5-dicarboxylic acid diamide]	> 100 µM	> 100 µM	> 100 µM	32 µM	> 100 µM	196 to 197 °C	no concomitant cytotoxic effects	
COC(=O)c1ncn(CCN2CCOCC2)c1C(=O)OC [Compound 1, 1-(2-Morpholin-4-yl-ethyl)-1H-imidazole-4,5-dicarboxylic acid dimethyl ester]	> 100 µM	> 100 µM	> 100 µM	24 µM	> 100 µM		no concomitant cytotoxic effects	
